Data: article PMC6152322, “Synthesis and Evaluation of New Oxadiazole, Thiadiazole, and Triazole Derivatives as Potential Anticancer Agents Targeting MMP-9” (Molecules : A Journal of Synthetic Chemistry and Natural …, 2017)
Read-outs that look alike come from different tables or passages of the source.

What was measured:
[1] = test system: A549 human lung adenocarcinoma cell line; experiment: XTT cytotoxicity assay on A549 cells; assay type: cell-based; conditions: for IC50: Mean ± standard deviation, read-out: IC50 Values for Cell Lines A549
Description: (§1) NIH/3T3 Mouse embryonic fibroblast (ATCC® CRL-1658™, American Type Culture Collection (ATCC), Manassas, VA, USA), A549 human lung adenocarcinoma (ATCC® CCL-185™, American Type Culture Collection (ATCC), Manassas, VA, USA) and C6 rat glioma (ATCC® CCL-107™, American Type Culture Collection (ATCC), Manassas, VA, USA) cell lines were used for cytotoxicity tests. NIH/3T3 cell line was used to investigate the selectivity of the compounds, whereas other cell lines were used to determine anticancer activity. All cell lines were incubated according to the instructions of the supplier at 37 °C in a humidified atmosphere of 95% air and 5% CO2. NIH/3T3, A549 and C6 cells were seeded at 1 × 10^4 cells into each well of 96-well plate. After 24 h of incubating period, the culture mediums were removed and compound was added to culture medium at 500–3.9 μg/mL doses with a dilution factor of 2 (3.9, 7.8, 15.6, 31.2, 62.5, 125, 250, 500 μg/mL). After 24 h of incubation, XTT (2,3-bis(2-methoxy-4-nitro-5-sulfophenyl)-2H-tetrazolium-5-carboxanilide) assay was performed using the In Cytotox-XTT 1 Parameter Cytotoxicity Kit (Xenometrix, Allschwil, Switzerland) as previously described. […] All experiments were done in quadruplicates at three different time points, and the results were given as Mean ± standard deviation. Cisplatin was used as a positive control. The stock solutions of the compounds were prepared in dimethyl sulfoxide (DMSO) and further dilutions were made with fresh culture medium. The final DMSO concentration was under 0.1%.
(§2) Inhibition%=100−( corrected mean OD sample/corrected mean OD solvent controls ×100)

C6 rat glioma cell line = experiment: XTT cytotoxicity assay on C6 cells; assay type: cell-based; conditions: 24 h incubation, Mean ± standard deviation, read-out: IC50 Values for Cell Lines C6
Description: as §1, §2

MMP-8 = biological target: T1, MMP-8 (Homo sapiens, UniProt P22894); experiment: MMP-8 colorimetric inhibition assay; assay type: biochemical; conditions: for Inhibition % (Mean ± SD) MMP-8: 1.3 μM
T1 construct: purchased Enzo Life Sciences Inc
T1 sequence (P22894 101-467): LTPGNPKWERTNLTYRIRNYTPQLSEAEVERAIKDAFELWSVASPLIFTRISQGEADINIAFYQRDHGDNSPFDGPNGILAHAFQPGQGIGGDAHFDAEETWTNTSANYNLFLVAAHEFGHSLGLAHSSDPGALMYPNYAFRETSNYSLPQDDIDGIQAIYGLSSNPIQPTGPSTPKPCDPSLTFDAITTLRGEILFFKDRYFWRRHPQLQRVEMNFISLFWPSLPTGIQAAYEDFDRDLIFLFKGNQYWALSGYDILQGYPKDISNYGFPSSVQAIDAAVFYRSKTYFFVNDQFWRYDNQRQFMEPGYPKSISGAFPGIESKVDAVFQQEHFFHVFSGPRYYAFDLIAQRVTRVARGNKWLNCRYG
Description: (§3) MMP-1, -2, -8, -9, -13 colorimetric kits were purchased from Enzo Life Sciences Inc. (Farmingdale, New York, NY, USA). The MMP Colorimetric Drug Discovery Kits are complete assay system designed to screen MMP inhibitors using a thiopeptide as a chromogenic substrate (Ac-PLG-[2-mercapto-4-methyl-pentanoyl]-LG-OC2H5). The MMP cleavage site peptide bond is replaced by a thioester bond in the thiopeptide. Hydrolysis of this bond by a MMP produces a sulfhydryl group, which reacts with DTNB [5,5′-dithiobis(2-nitrobenzoic acid), Ellman’s reagent] to form 2-nitro-5-thiobenzoic acid, which can be detected by its absorbance at 412 nm. The assays were conducted in triplicate. The UV absorbance was read at 412 nm using a microplate reader (BioTek, PowerWave, Gen5 software, Winooski, VT, USA) at room temperature. NNGH was used as a control inhibitor. Data was expressed as Mean ± SD [63].
(§4) The inhibitor% remaining activity of MMPs was calculated using the following equation: Inhibitor% activity remaining = (V inhibitor/V control) × 100
(§5) The inhibition (percent) of MMPs was calculated using the following equation:I (%) = 100 − Inhibitor% activity remaining

MMP-9 = biological target: T2, MMP-9 (Homo sapiens, UniProt P14780); experiment: MMP-9 colorimetric inhibition assay; assay type: biochemical; conditions: for inhibition at 1.3 µM: read-out: Inhibition % (Mean ± SD) MMP-9
T2 construct: purchased Enzo Life Sciences Inc
T2 sequence (P14780 94-707): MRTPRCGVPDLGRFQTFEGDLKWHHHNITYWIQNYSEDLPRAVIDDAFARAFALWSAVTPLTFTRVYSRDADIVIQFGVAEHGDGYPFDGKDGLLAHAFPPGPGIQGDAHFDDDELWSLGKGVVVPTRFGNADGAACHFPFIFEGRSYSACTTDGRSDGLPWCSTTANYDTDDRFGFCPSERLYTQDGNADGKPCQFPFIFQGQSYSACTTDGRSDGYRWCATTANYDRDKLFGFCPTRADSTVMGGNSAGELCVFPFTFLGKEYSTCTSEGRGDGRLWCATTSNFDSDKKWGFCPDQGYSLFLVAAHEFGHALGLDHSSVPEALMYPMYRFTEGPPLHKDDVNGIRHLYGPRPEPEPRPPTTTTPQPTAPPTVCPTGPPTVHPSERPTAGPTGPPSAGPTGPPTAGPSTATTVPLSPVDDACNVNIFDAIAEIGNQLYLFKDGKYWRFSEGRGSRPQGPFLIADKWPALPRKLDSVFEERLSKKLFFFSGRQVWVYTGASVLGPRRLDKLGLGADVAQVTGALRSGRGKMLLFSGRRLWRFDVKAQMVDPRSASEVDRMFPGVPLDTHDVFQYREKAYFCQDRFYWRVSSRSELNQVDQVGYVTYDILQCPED
Description: as §3, §4, §5

[2] = test system: NIH/3T3 mouse embryonic fibroblast cell line; experiment: XTT cytotoxicity assay on NIH/3T3 cells; assay type: cell-based; conditions: NIH3T3, 24 h incubation, Mean ± standard deviation, read-out: IC50 Values for Cell Lines NIH/3T3
Description: as §1, §2

MMP-13 = biological target: T3, MMP-13 (Homo sapiens, UniProt P45452); experiment: MMP-13 colorimetric inhibition assay; assay type: biochemical; conditions: 1.3 μM
T3 construct: purchased Enzo Life Sciences Inc
Description: as §3, §4, §5

MMP-1 = biological target: T4, MMP-1 (Homo sapiens, UniProt P03956); experiment: MMP-1 colorimetric inhibition assay; assay type: biochemical; conditions: 1.3 μM
T4 construct: purchased Enzo Life Sciences Inc
T4 sequence (P03956 100-469): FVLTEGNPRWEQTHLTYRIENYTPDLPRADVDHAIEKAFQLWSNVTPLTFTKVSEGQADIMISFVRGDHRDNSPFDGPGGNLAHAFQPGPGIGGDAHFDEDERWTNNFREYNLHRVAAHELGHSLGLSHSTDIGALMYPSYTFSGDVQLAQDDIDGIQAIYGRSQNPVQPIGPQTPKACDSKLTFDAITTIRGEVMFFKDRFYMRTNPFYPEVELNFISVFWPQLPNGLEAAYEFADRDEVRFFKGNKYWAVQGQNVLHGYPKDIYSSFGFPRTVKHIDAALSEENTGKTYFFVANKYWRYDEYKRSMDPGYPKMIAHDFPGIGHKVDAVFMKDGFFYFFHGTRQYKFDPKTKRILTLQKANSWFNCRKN
Description: as §3, §4, §5

MMP-2 = biological target: T5, MMP-2 (Homo sapiens, UniProt P08253); experiment: MMP-2 colorimetric inhibition assay; assay type: biochemical; conditions: 1.3 μM
T5 construct: purchased Enzo Life Sciences Inc
T5 sequence (P08253 110-660): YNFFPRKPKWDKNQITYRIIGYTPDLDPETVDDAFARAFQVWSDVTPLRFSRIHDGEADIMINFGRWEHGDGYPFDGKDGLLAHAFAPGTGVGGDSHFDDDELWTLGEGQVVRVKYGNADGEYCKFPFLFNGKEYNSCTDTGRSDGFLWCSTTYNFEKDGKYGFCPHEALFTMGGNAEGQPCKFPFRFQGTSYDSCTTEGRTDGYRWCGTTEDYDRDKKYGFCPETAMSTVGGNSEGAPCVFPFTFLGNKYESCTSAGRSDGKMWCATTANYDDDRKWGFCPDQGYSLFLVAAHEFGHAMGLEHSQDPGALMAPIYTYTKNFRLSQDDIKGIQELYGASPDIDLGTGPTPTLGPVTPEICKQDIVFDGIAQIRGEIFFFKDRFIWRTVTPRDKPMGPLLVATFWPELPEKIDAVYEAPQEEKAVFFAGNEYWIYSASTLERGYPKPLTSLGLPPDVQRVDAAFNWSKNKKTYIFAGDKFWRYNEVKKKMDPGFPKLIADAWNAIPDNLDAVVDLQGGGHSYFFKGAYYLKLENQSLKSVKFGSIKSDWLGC
Description: as §3, §4, §5

[3] = Homo sapiens, A549, 24 h incubation

Structure (SMILES) | IC50 [1, 3] | IC50 [2] | IC50 (C6 rat glioma cell line; Rattus norvegicus, Glioma cell) | melting point | further results
N.N.[Cl][Pt][Cl] [Cisplatin, reference compound] |  |  |  |  | IC50 ([1]; 24 h incubation): 140 ± 30 µM; IC50 (C6 rat glioma cell line): 103 ± 26 µM
O=C(CSc1nnc(Nc2ccc(Cl)cc2Cl)s1)N1CCOCC1 [Compound 1, 2-{[5-((2,4-Dichlorophenyl)amino)-1,3,4-thiadiazol-2-yl]thio}-1-morpholinoethan-1-one] | > 1230 µM | 308 ± 37 µM | 128 ± 27 µM | 154 °C | inhibition at 1.3 µM (MMP-8; read-out: Inhibition % (Mean ± SD) MMP-8): 15 ± 1.4%; inhibition at 1.3 µM (MMP-9): 24.8 ± 0.86%
Nn1c(COc2ccccc2)nnc1SCC(=O)N1CCOCC1 [Compound 2, 2-{[4-Amino-5-(phenoxymethyl)-4H-1,2,4-triazol-3-yl]thio}-1-morpholinoethan-1-one] | > 1430 µM | 1410 ± 94 µM | > 1430 µM | 213 °C | 
COc1ccc(OCc2nnc(SCC(=O)N3CCOCC3)o2)cc1 [Compound 3, 2-{[5-((4-Methoxyphenoxy)methyl)-1,3,4-oxadiazol-2-yl]thio}-1-morpholinoethan-1-one] | 1370 ± 58 µM | 1370 ± 74 µM | 507 ± 49 µM | 119 °C | 
O=C(CSc1nnc(COc2ccc3c(c2)CCCC3)o1)N1CCOCC1 [Compound 4, 2-{[5-(((5,6,7,8-Tetrahydronaphthalen-2-yl)oxy)methyl)-1,3,4-oxadiazol-2-yl]thio}-1-morpholinoethan-1-one] | > 1280 µM | 1280 ± 90 µM | > 1280 µM |  | 
O=C(CSc1nnc(Nc2ccc(Cl)cc2Cl)s1)NCc1ccc2c(c1)OCO2 [Compound 5, N-(1,3-Benzodioxol-5-ylmethyl)-2-{[5-((2,4-dichlorophenyl)amino)-1,3,4-thiadiazol-2-yl]thio}acetamide] | > 1070 µM | > 1070 µM | > 1070 µM | 187 °C | cytotoxic activity against A549 cell line (in words) ([1]; 24 h incubation): did not show any cytotoxic activity
Nn1c(COc2ccccc2)nnc1SCC(=O)NCc1ccc2c(c1)OCO2 [Compound 6, 2-{[4-Amino-5-(phenoxymethyl)-4H-1,2,4-triazol-3-yl]thio}-N-(1,3-benzodioxol-5-ylmethyl)acetamide] | > 1210 µM | > 1210 µM | > 1210 µM | 148 °C | cytotoxic activity against A549 cell line (in words) ([1]; 24 h incubation): did not show any cytotoxic activity
COc1ccc(OCc2nnc(SCC(=O)NCc3ccc4c(c3)OCO4)o2)cc1 [Compound 7, N-(1,3-Benzodioxol-5-ylmethyl)-2-{[5-((4-methoxyphenoxy)methyl)-1,3,4-oxadiazol-2-yl]thio}acetamide] | > 1170 µM | 100 ± 11 µM | > 1170 µM | 127 °C | cytotoxic activity against A549 cell line (in words) ([1]; 24 h incubation): did not show any cytotoxic activity
O=C(CSc1nnc(COc2ccc3c(c2)CCCC3)o1)NCc1ccc2c(c1)OCO2 [Compound 8, N-(1,3-Benzodioxol-5-ylmethyl)-2-{[5-(((5,6,7,8-tetrahydronaphthalen-2-yl)oxy)methyl)-1,3,4-oxadiazol-2-yl]thio}acetamide] | 125 ± 20 µM | > 1100 µM | 137 ± 15 µM | 96 °C | Inhibition % (Mean ± SD) MMP-8 (MMP-8): no inhibitory activity; inhibition at 1.3 µM (MMP-9): 25.8 ± 2.16%
O=C(CSc1nnc(-c2ccccc2)o1)NCc1ccc2c(c1)OCO2 [Compound 9, N-(1,3-Benzodioxol-5-ylmethyl)-2-[(5-phenyl-1,3,4-oxadiazol-2-yl)thio]acetamide] | 349 ± 46 µM | 888 ± 29 µM | 157 ± 16 µM | 136 °C | Inhibition % (Mean ± SD) MMP-8 (MMP-8): no inhibitory activity; inhibition at 1.3 µM (MMP-9): 30.5 ± 3.27%
COc1ccc(S(=O)(=O)N(CC(=O)NO)CC(C)C)cc1 [NNGH, N-isobutyl-N-(4-methoxyphenylsulfonyl)glycyl hydroxamic acid] |  |  |  |  | Inhibition % (Mean ± SD) MMP-13 (MMP-13): 93.74 ± 3.06%; Inhibition % (Mean ± SD) MMP-1 (MMP-1): 87.79 ± 3.49%; Inhibition % (Mean ± SD) MMP-8 (MMP-8): 100%; Inhibition % (Mean ± SD) MMP-9 (MMP-9; 1.3 μM): 88.44 ± 3.35%; Inhibition % (Mean ± SD) MMP-2 (MMP-2): 100%
